Where a SMILES comes first, the peptide text is derived from it. [ ]: non-standard residue; d: D form. The star is where a group is joined. Phe(3,4-Cl2) = N[C@@H](Cc1ccc(Cl)c(Cl)c1)C(=O)O; 1Nal = N[C@@H](Cc1cccc2ccccc12)C(=O)O; Stearoyl = CCCCCCCCCCCCCCCCCC(=O)*; Palmitoyl = CCCCCCCCCCCCCCCC(=O)*; Myristoyl = CCCCCCCCCCCCCC(=O)*; Lauroyl = CCCCCCCCCCCC(=O)*; Decanoyl = CCCCCCCCCC(=O)*; Nle = CCCC[C@H](N)C(=O)O; Octanoyl = CCCCCCCC(=O)*
Test system: fasted C57BL/6 mice
Assay: Food intake in fasted mice after SC administration
Assay type: in vivo, mouse
Conditions: fasted C57BL/6 mice, 5 mg/kg SC, 45 min
Description: Male C57BL/6 mice (An Lab, Prague 4) were bred in the accredited animal facility in the Institute of Organic Chemistry and Biochemistry, Czech Academy of Sciences, Prague, at the Institute of Molecular Genetics, Prague 4, at the temperature of 22±2° C. with access to food and water ad libitum. The day/night cycle was 12/12 hours (light turned on at 6:00 am). Animals were treated according to the Animal Protection Act (Act No. 246/1992). The males were fed standard chow diet St-1 (Mlýn Kocanda, Praha, Czech Republic) which contained 66% saccharides, 25% proteins and 9% lipids with a caloric value of 3.4 kcal/g.
The food was withdrawn 17 hours prior to injection of lipidated peptide and free access to water was maintained. The administration of saline, PrRP or lipidated analogs was performed either by SC injection at doses of 1-10 mg/kg (volume 0.2 ml/mouse), or by ICV using infusion pump (cannulae were inserted into the third brain ventricle 4 days before the experiment following the procedure of Maixnerová et al. (Maixnerová et al., 2011)). The single dose of peptide was 4 nmol/mouse (5 μl/mouse).
Fifteen minutes after the lipidated peptide administration, the mice were given pre-weighed food. The food was then weighed every 30 minutes for 5-10 hours. The administration of every dose was performed at least twice and one group of mice consisted of at least 6 mice. The results were presented as % of food intake as compared with the control group injected with saline.
Statistical evaluation was performed using program Graph-Pad Prism Software (San Diego, Calif., USA), and the one-way ANOVA with a subsequent Dunnettovým post-hoc test. The difference in food intake between mice injected with saline and mice injected with the examined peptide were considered statistically significant at P<0.05.

SMILES	Food intake in mice (5 mg/kg SC) % saline-treated group (45 min) [%]
CCCCCCCC(=O)N[C@@H](CO)C(=O)N[C@@H](CCCNC(=N)N)C(=O)N[C@@H](C)C(=O)N[C@@H](Cc1c[nH]cn1)C(=O)N[C@@H](CCC(N)=O)C(=O)N[C@@H](Cc1c[nH]cn1)C(=O)N[C@@H](CO)C(=O)N[C@@H](CCCC)C(=O)N[C@@H](CCC(=O)O)C(=O)N[C@H](C(=O)N[C@@H](CCCNC(=N)N)C(=O)N[C@H](C(=O)N1CCC[C@H]1C(=O)N[C@@H](CC(=O)O)C(=O)N[C@H](C(=O)N[C@@H](CC(N)=O)C(=O)N1CCC[C@H]1C(=O)N[C@@H](C)C(=O)N[C@@H](Cc1c[nH]c2ccccc12)C(=O)N[C@@H](Cc1ccc(O)cc1)C(=O)N[C@H](C(=O)NCC(=O)N[C@@H](CCCNC(=N)N)C(=O)NCC(=O)N[C@H](C(=O)N[C@@H](CCCNC(=N)N)C(=O)N1CCC[C@H]1C(=O)N[C@H](C(=O)NCC(=O)N[C@@H](CCCNC(=N)N)C(=O)N[C@@H](Cc1ccccc1)C(N)=O)C(C)C)[C@@H](C)CC)[C@@H](C)O)[C@@H](C)CC)[C@@H](C)O)[C@@H](C)O [Analog 15] (Octanoyl-SRAHQHS[Nle]ETRTPDINPAWYTGRGIRPVGRF-NH2)	94
CCCCCCCCCC(=O)N[C@@H](CO)C(=O)N[C@@H](CCCNC(=N)N)C(=O)N[C@@H](C)C(=O)N[C@@H](Cc1c[nH]cn1)C(=O)N[C@@H](CCC(N)=O)C(=O)N[C@@H](Cc1c[nH]cn1)C(=O)N[C@@H](CO)C(=O)N[C@@H](CCCC)C(=O)N[C@@H](CCC(=O)O)C(=O)N[C@H](C(=O)N[C@@H](CCCNC(=N)N)C(=O)N[C@H](C(=O)N1CCC[C@H]1C(=O)N[C@@H](CC(=O)O)C(=O)N[C@H](C(=O)N[C@@H](CC(N)=O)C(=O)N1CCC[C@H]1C(=O)N[C@@H](C)C(=O)N[C@@H](Cc1c[nH]c2ccccc12)C(=O)N[C@@H](Cc1ccc(O)cc1)C(=O)N[C@H](C(=O)NCC(=O)N[C@@H](CCCNC(=N)N)C(=O)NCC(=O)N[C@H](C(=O)N[C@@H](CCCNC(=N)N)C(=O)N1CCC[C@H]1C(=O)N[C@H](C(=O)NCC(=O)N[C@@H](CCCNC(=N)N)C(=O)N[C@@H](Cc1ccccc1)C(N)=O)C(C)C)[C@@H](C)CC)[C@@H](C)O)[C@@H](C)CC)[C@@H](C)O)[C@@H](C)O [Analog 16] (Decanoyl-SRAHQHS[Nle]ETRTPDINPAWYTGRGIRPVGRF-NH2)	57
CCCCCCCCCCCC(=O)N[C@@H](CO)C(=O)N[C@@H](CCCNC(=N)N)C(=O)N[C@@H](C)C(=O)N[C@@H](Cc1c[nH]cn1)C(=O)N[C@@H](CCC(N)=O)C(=O)N[C@@H](Cc1c[nH]cn1)C(=O)N[C@@H](CO)C(=O)N[C@@H](CCCC)C(=O)N[C@@H](CCC(=O)O)C(=O)N[C@H](C(=O)N[C@@H](CCCNC(=N)N)C(=O)N[C@H](C(=O)N1CCC[C@H]1C(=O)N[C@@H](CC(=O)O)C(=O)N[C@H](C(=O)N[C@@H](CC(N)=O)C(=O)N1CCC[C@H]1C(=O)N[C@@H](C)C(=O)N[C@@H](Cc1c[nH]c2ccccc12)C(=O)N[C@@H](Cc1ccc(O)cc1)C(=O)N[C@H](C(=O)NCC(=O)N[C@@H](CCCNC(=N)N)C(=O)NCC(=O)N[C@H](C(=O)N[C@@H](CCCNC(=N)N)C(=O)N1CCC[C@H]1C(=O)N[C@H](C(=O)NCC(=O)N[C@@H](CCCNC(=N)N)C(=O)N[C@@H](Cc1ccccc1)C(N)=O)C(C)C)[C@@H](C)CC)[C@@H](C)O)[C@@H](C)CC)[C@@H](C)O)[C@@H](C)O [Analog 17] (Lauroyl-SRAHQHS[Nle]ETRTPDINPAWYTGRGIRPVGRF-NH2)	22
CCCCCCCCCCCCCC(=O)N[C@@H](CO)C(=O)N[C@@H](CCCNC(=N)N)C(=O)N[C@@H](C)C(=O)N[C@@H](Cc1c[nH]cn1)C(=O)N[C@@H](CCC(N)=O)C(=O)N[C@@H](Cc1c[nH]cn1)C(=O)N[C@@H](CO)C(=O)N[C@@H](CCCC)C(=O)N[C@@H](CCC(=O)O)C(=O)N[C@H](C(=O)N[C@@H](CCCNC(=N)N)C(=O)N[C@H](C(=O)N1CCC[C@H]1C(=O)N[C@@H](CC(=O)O)C(=O)N[C@H](C(=O)N[C@@H](CC(N)=O)C(=O)N1CCC[C@H]1C(=O)N[C@@H](C)C(=O)N[C@@H](Cc1c[nH]c2ccccc12)C(=O)N[C@@H](Cc1ccc(O)cc1)C(=O)N[C@H](C(=O)NCC(=O)N[C@@H](CCCNC(=N)N)C(=O)NCC(=O)N[C@H](C(=O)N[C@@H](CCCNC(=N)N)C(=O)N1CCC[C@H]1C(=O)N[C@H](C(=O)NCC(=O)N[C@@H](CCCNC(=N)N)C(=O)N[C@@H](Cc1ccccc1)C(N)=O)C(C)C)[C@@H](C)CC)[C@@H](C)O)[C@@H](C)CC)[C@@H](C)O)[C@@H](C)O [Analog 18] (Myristoyl-SRAHQHS[Nle]ETRTPDINPAWYTGRGIRPVGRF-NH2)	3
CCCCCCCCCCCCCCCCCC(=O)N[C@@H](CO)C(=O)N[C@@H](CCCNC(=N)N)C(=O)N[C@@H](C)C(=O)N[C@@H](Cc1c[nH]cn1)C(=O)N[C@@H](CCC(N)=O)C(=O)N[C@@H](Cc1c[nH]cn1)C(=O)N[C@@H](CO)C(=O)N[C@@H](CCCC)C(=O)N[C@@H](CCC(=O)O)C(=O)N[C@H](C(=O)N[C@@H](CCCNC(=N)N)C(=O)N[C@H](C(=O)N1CCC[C@H]1C(=O)N[C@@H](CC(=O)O)C(=O)N[C@H](C(=O)N[C@@H](CC(N)=O)C(=O)N1CCC[C@H]1C(=O)N[C@@H](C)C(=O)N[C@@H](Cc1c[nH]c2ccccc12)C(=O)N[C@@H](Cc1ccc(O)cc1)C(=O)N[C@H](C(=O)NCC(=O)N[C@@H](CCCNC(=N)N)C(=O)NCC(=O)N[C@H](C(=O)N[C@@H](CCCNC(=N)N)C(=O)N1CCC[C@H]1C(=O)N[C@H](C(=O)NCC(=O)N[C@@H](CCCNC(=N)N)C(=O)N[C@@H](Cc1ccccc1)C(N)=O)C(C)C)[C@@H](C)CC)[C@@H](C)O)[C@@H](C)CC)[C@@H](C)O)[C@@H](C)O [Analog 20] (Stearoyl-SRAHQHS[Nle]ETRTPDINPAWYTGRGIRPVGRF-NH2)	3.5
CCCCCCCCCCCCCCCC(=O)N[C@@H](CO)C(=O)N[C@@H](CCCNC(=N)N)C(=O)N[C@@H](C)C(=O)N[C@@H](Cc1c[nH]cn1)C(=O)N[C@@H](CCC(N)=O)C(=O)N[C@@H](Cc1c[nH]cn1)C(=O)N[C@@H](CO)C(=O)N[C@@H](CCCC)C(=O)N[C@@H](CCC(=O)O)C(=O)N[C@H](C(=O)N[C@@H](CCCNC(=N)N)C(=O)N[C@H](C(=O)N1CCC[C@H]1C(=O)N[C@@H](CC(=O)O)C(=O)N[C@H](C(=O)N[C@@H](CC(N)=O)C(=O)N1CCC[C@H]1C(=O)N[C@@H](C)C(=O)N[C@@H](Cc1c[nH]c2ccccc12)C(=O)N[C@@H](Cc1ccc(O)cc1)C(=O)N[C@H](C(=O)NCC(=O)N[C@@H](CCCNC(=N)N)C(=O)NCC(=O)N[C@H](C(=O)N[C@@H](CCCNC(=N)N)C(=O)N1CCC[C@H]1C(=O)N[C@H](C(=O)NCC(=O)N[C@@H](CCCNC(=N)N)C(=O)N[C@@H](Cc1cccc2ccccc12)C(N)=O)C(C)C)[C@@H](C)CC)[C@@H](C)O)[C@@H](C)CC)[C@@H](C)O)[C@@H](C)O [Analog 23] (Palmitoyl-SRAHQHS[Nle]ETRTPDINPAWYTGRGIRPVGR[1Nal]-NH2)	13
CCCCCCCCCCCCCC(=O)N[C@@H](CO)C(=O)N[C@@H](CCCNC(=N)N)C(=O)N[C@@H](C)C(=O)N[C@@H](Cc1c[nH]cn1)C(=O)N[C@@H](CCC(N)=O)C(=O)N[C@@H](Cc1c[nH]cn1)C(=O)N[C@@H](CO)C(=O)N[C@@H](CCCC)C(=O)N[C@@H](CCC(=O)O)C(=O)N[C@H](C(=O)N[C@@H](CCCNC(=N)N)C(=O)N[C@H](C(=O)N1CCC[C@H]1C(=O)N[C@@H](CC(=O)O)C(=O)N[C@H](C(=O)N[C@@H](CC(N)=O)C(=O)N1CCC[C@H]1C(=O)N[C@@H](C)C(=O)N[C@@H](Cc1c[nH]c2ccccc12)C(=O)N[C@@H](Cc1ccc(O)cc1)C(=O)N[C@H](C(=O)NCC(=O)N[C@@H](CCCNC(=N)N)C(=O)NCC(=O)N[C@H](C(=O)N[C@@H](CCCNC(=N)N)C(=O)N1CCC[C@H]1C(=O)N[C@H](C(=O)NCC(=O)N[C@@H](CCCNC(=N)N)C(=O)N[C@@H](Cc1ccc(Cl)c(Cl)c1)C(N)=O)C(C)C)[C@@H](C)CC)[C@@H](C)O)[C@@H](C)CC)[C@@H](C)O)[C@@H](C)O [Analog 25] (Myristoyl-SRAHQHS[Nle]ETRTPDINPAWYTGRGIRPVGR[Phe(3,4-Cl2)]-NH2)	13
CCCCCCCCCCCCCCCC(=O)N[C@@H](CO)C(=O)N[C@@H](CCCNC(=N)N)C(=O)N[C@@H](C)C(=O)N[C@@H](Cc1c[nH]cn1)C(=O)N[C@@H](CCC(N)=O)C(=O)N[C@@H](Cc1c[nH]cn1)C(=O)N[C@@H](CO)C(=O)N[C@@H](CCCC)C(=O)N[C@@H](CCC(=O)O)C(=O)N[C@H](C(=O)N[C@@H](CCCNC(=N)N)C(=O)N[C@H](C(=O)N1CCC[C@H]1C(=O)N[C@@H](CC(=O)O)C(=O)N[C@H](C(=O)N[C@@H](CC(N)=O)C(=O)N1CCC[C@H]1C(=O)N[C@@H](C)C(=O)N[C@@H](Cc1c[nH]c2ccccc12)C(=O)N[C@@H](Cc1ccc(O)cc1)C(=O)N[C@H](C(=O)NCC(=O)N[C@@H](CCCNC(=N)N)C(=O)NCC(=O)N[C@H](C(=O)N[C@@H](CCCNC(=N)N)C(=O)N1CCC[C@H]1C(=O)N[C@H](C(=O)NCC(=O)N[C@@H](CCCNC(=N)N)C(=O)N[C@@H](Cc1ccc(Cl)c(Cl)c1)C(N)=O)C(C)C)[C@@H](C)CC)[C@@H](C)O)[C@@H](C)CC)[C@@H](C)O)[C@@H](C)O [Analog 26] (Palmitoyl-SRAHQHS[Nle]ETRTPDINPAWYTGRGIRPVGR[Phe(3,4-Cl2)]-NH2)	5

— patent US9937235B2, “Lipidated peptides as anti-obesity agents” (USTAV ORGANICKE CHEMIE A BIOCHEMIE AKADEMIE VED CR, V.V.I, priority 2012, dated 2018)
